{
  "source": "patent US20100234381A1",
  "about": "“BIOMARKERS AND METHODS FOR DETERMINING SENSITIVITY TO VASCULAR ENDOTHELIAL GROWTH FACTOR RECEPTOR-2 MODULATORS” (Bristol-Myers Squibb Company, priority 2007, published 2010)",
  "test_system": "MIAPAC-2 pancreatic cancer cells",
  "assay": "FGF2-induced proliferation of MIAPAC-2 pancreatic cancer cells (modified MTS assay)",
  "assay_type": "cell-based",
  "description": "Cell proliferation was determined by a modified MTS assay with […] 96® Aqueous One Solution Reagent (Promega, Madison, Wis.). A2780 ovarian cancer cells, MIAPAC-2 pancreatic cancer cells, or GEO colon cancer cells were seeded on 96-well flat-bottomed tissue culture plates (Becton Dickinson, San Jose, Calif.) at a concentration of 3×10^3 cells/well in RPMI 1640 with 1% fetal bovine serum at 37° C. in 5% carbon dioxide/95% air in the presence of 100 units/ml penicillin, 100 μg/ml streptomycin and allowed to adhere to the plate overnight. Then the cells were incubated in the presence of each concentration of 0 (control), 0.3, 0.6, 1.25, 2.5, 5, 10 ng/ml of FGF2 or VEGF for another 72 hours at 37° C. in a humidified atmosphere of 5% CO2 in air. After treatment, 20 μl of […] 96® Aqueous One Solution Reagent was dropped into each well of plates. After 180 minutes incubation, the optical densities (OD) of these samples were directly measured using SPECTRAMAX® plus (Molecular Device, California) and reference wavelength of 490 nm. The OD of control samples was regarded as 100. Each condition was performed with 4 wells and experiment was repeated twice.",
  "note": "“Also recorded” adds a separate entry of the source.",
  "data": [
    {"substance": "[(1R),2S]-2-Aminopropionic acid 2-[4-(4-fluoro-2-methyl-1H-indol-5-yloxy)-5-methylpyrrolo[2,1-f][1,2,4]triazin-6-yloxy]-1-methylethyl ester [brivanib]", "values": [
      {"measurement": "effect on FGF2-induced cellular proliferation", "setting": "MIAPAC-2 pancreatic cancer cells", "result": "potently inhibited; also recorded: inhibits ovarian cancer and pancreatic cancer cell line growth directly"},
      {"measurement": "inhibition of FGF2-induced cell growth", "setting": "pancreatic cancer cell line MIAPAC-2", "result": "> 50", "unit": "%"},
      {"measurement": "IC50", "setting": "pancreatic cancer cell line MIAPAC-2, read-out: IC50, FGF2-induced cell growth", "result": "< 500", "unit": "nM"}
    ]}
  ]
}
